# Columns and labels:
# blackgrass [1] = experiment: Test A preemergence; type: in vivo, Alopecurus myosuroides
# Outline: (§1)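 Weeds and crops in loam–sand blend were sprayed preemergence onto soil or postemergence at 2–10 cm (one- to two-leaf stage). Test chemicals were in a non-phytotoxic solvent with surfactant. After 10 days in the greenhouse, injury was rated visually against untreated controls on a 0 (no effect) to 100 (complete control) scale.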
# corn [2] = experiment: Test A preemergence; type: in vivo, Zea mays
# Outline: as §1
# foxtail, giant [3] = experiment: Test A preemergence; type: in vivo, Setaria faberi
# Outline: as §1
# goosegrass [4] = experiment: Test A preemergence; type: in vivo, Eleusine indica
# Outline: as §1
# kochia [5] = experiment: Test A preemergence; type: in vivo, Bassia scoparia
# Outline: as §1
# oat, wild [6] = experiment: Test A preemergence; type: in vivo, Avena fatua
# Outline: as §1
# pigweed, palmer [7] = experiment: Test A preemergence; type: in vivo, Amaranthus palmeri
# Outline: as §1
# ragweed [8] = experiment: Test A preemergence; type: in vivo, Ambrosia artemisiifolia
# Outline: as §1
# ryegrass, Italian [9] = experiment: Test A preemergence; type: in vivo, Lolium multiflorum
# Outline: as §1
# soybean [10] = experiment: Test A preemergence; type: in vivo, Glycine max
# Outline: as §1
# wheat [11] = experiment: Test A preemergence; type: in vivo, Triticum aestivum
# Outline: as §1
# blackgrass [12] = experiment: Test A postemergence; type: in vivo, Alopecurus myosuroides
# Outline: as §1
# corn [13] = experiment: Test A postemergence; type: in vivo, Zea mays
# Outline: as §1
# foxtail, giant [14] = experiment: Test A postemergence; type: in vivo, Setaria faberi
# Outline: as §1
# goosegrass [15] = experiment: Test A postemergence; type: in vivo, Eleusine indica
# Outline: as §1
# kochia [16] = experiment: Test A postemergence; type: in vivo, Bassia scoparia
# Outline: as §1
# oat, wild [17] = experiment: Test A postemergence; type: in vivo, Avena fatua
# Outline: as §1
# pigweed, palmer [18] = experiment: Test A postemergence; type: in vivo, Amaranthus palmeri
# Outline: as §1
# ragweed [19] = experiment: Test A postemergence; type: in vivo, Ambrosia artemisiifolia
# Outline: as §1
# ryegrass, Italian [20] = experiment: Test A postemergence; type: in vivo, Lolium multiflorum
# Outline: as §1
# soybean [21] = experiment: Test A postemergence; type: in vivo, Glycine max; settings: 500 g ai/ha
# Outline: as §1
# wheat [22] = experiment: Test A postemergence; type: in vivo, Triticum aestivum
# Outline: as §1
# galium = experiment: Test A postemergence; type: in vivo, Galium aparine
# Outline: as §1
# horseweed = experiment: Test A postemergence; type: in vivo, Erigeron canadensis
# Outline: as §1
# barnyardgrass = experiment: Test B flooded paddy test; type: in vivo, Echinochloa crus-galli; settings: 250 g ai/ha, Flood, 13 days, 0 to 100 scale (0 no effect, 100 complete control)
# Outline: (§2)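 Each species was raised to the 2-leaf stage. At treatment, each pot received floodwater 3 cm deep, with the chemical delivered into the water. Greenhouse holding followed for 13 days, then percent control was estimated visually versus untreated pots.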
# ducksalad = experiment: Test B flooded paddy test; type: in vivo, Heteranthera limosa; settings: 250 g ai/ha, Flood, 13 days, 0 to 100 scale (0 no effect, 100 complete control)
# Outline: as §2
# rice = experiment: Test B flooded paddy test; type: in vivo, Oryza sativa; settings: 250 g ai/ha, Flood, 13 days, 0 to 100 scale (0 no effect, 100 complete control)
# Outline: as §2
# sedge, umbrella = experiment: Test B flooded paddy test; type: in vivo, Cyperus difformis; settings: 250 g ai/ha, Flood, 13 days, 0 to 100 scale (0 no effect, 100 complete control)
# Outline: as §2
# [23] = 125 g ai/ha, visual injury after 10 days, 0 to 100 scale, 0 is no effect, 100 is complete control
# [24] = 500 g ai/ha, 0 to 100 scale (0 no effect, 100 complete control), 10 days
# [25] = 125 g ai/ha, postemergence, 10 days, visual injury, 0 to 100 scale (0 no effect, 100 complete control)
# [26] = 500 g ai/ha, Postemergence, 0 to 100 scale
# [27] = 500 g ai/ha, postemergence, 10 days, visual injury, 0 to 100 scale (0 no effect, 100 complete control)
smiles,measurement,setting,value
CCCc1ncn(-c2cccc(C(=O)N3C[C@H](C)Oc4c(C)cccc43)c2)n1 [Compound 72],"Plant response rating, Blackgrass",blackgrass [1]; [23],40
same,"Plant response rating, Blackgrass",blackgrass [1]; [24],70
same,"Plant response rating, Corn",corn [2]; [23],30
same,"Plant response rating, Corn",corn [2]; [24],50
same,"Plant response rating, Foxtail, Giant","foxtail, giant [3]; [23]",100
same,"Plant response rating, Foxtail, Giant","foxtail, giant [3]; [24]",100
same,"Plant response rating, Goosegrass",goosegrass [4]; [23],90
same,"Plant response rating, Goosegrass",goosegrass [4]; [24],100
same,"Plant response rating, Kochia",kochia [5]; [23],30
same,"Plant response rating, Kochia",kochia [5]; [24],80
same,"Plant response rating, Oat, Wild","oat, wild [6]; [23]",10
same,"Plant response rating, Oat, Wild","oat, wild [6]; [24]",90
same,"Plant response rating, Pigweed, Palmer","pigweed, palmer [7]; [23]",70
same,"Plant response rating, Pigweed, Palmer","pigweed, palmer [7]; [24]",100
same,"Plant response rating, Ragweed",ragweed [8]; [23],0
same,"Plant response rating, Ragweed",ragweed [8]; [24],0
same,"Plant response rating, Ryegrass, Italian","ryegrass, Italian [9]; [23]",100
same,"Plant response rating, Ryegrass, Italian","ryegrass, Italian [9]; [24]",100
same,"Plant response rating, Soybean",soybean [10]; [23],30
same,"Plant response rating, Soybean",soybean [10]; [24],60
same,"Plant response rating, Wheat",wheat [11]; [23],0
same,"Plant response rating, Wheat",wheat [11]; [24],30
same,"Plant response rating, Blackgrass",blackgrass [12]; [25],0
same,"Plant response rating, Blackgrass",blackgrass [12]; [26],80
same,"Plant response rating, Corn",corn [13]; [25],30
same,"Plant response rating, Corn",corn [13]; [27],90
same,"Plant response rating, Foxtail, Giant","foxtail, giant [14]; [25]",10
same,"Plant response rating, Foxtail, Giant","foxtail, giant [14]; [27]",50
same,"Plant response rating, Goosegrass",goosegrass [15]; [25],50
same,"Plant response rating, Goosegrass",goosegrass [15]; [27],90
same,"Plant response rating, Kochia",kochia [16]; [25],70
same,"Plant response rating, Kochia",kochia [16]; [27],90
same,"Plant response rating, Oat, Wild","oat, wild [17]; [27]",50
same,"Plant response rating, Pigweed, Palmer","pigweed, palmer [18]; [27]",70
same,"Plant response rating, Ragweed",ragweed [19]; [27],50
same,"Plant response rating, Ryegrass, Italian","ryegrass, Italian [20]; [27]",70
same,"Plant response rating, Soybean","soybean [21]; postemergence, 10 days, visual injury, 0 to 100 scale (0 no effect, 100 complete control)",100
same,"Plant response rating, Wheat",wheat [22]; [27],30
same,"Plant response rating, Galium",galium; [25],70
same,"Plant response rating, Galium",galium; [27],100
same,"Plant response rating, Horseweed",horseweed; [25],20
same,"Plant response rating, Horseweed",horseweed; [27],50
same,"Plant response rating, Barnyardgrass",barnyardgrass,15
same,"Plant response rating, Ducksalad",ducksalad,55
same,"Plant response rating, Rice",rice,0
same,"Plant response rating, Sedge, Umbrella","sedge, umbrella",15
O=C(c1cccc(-n2cncn2)c1)N1CC(C(F)(F)F)Oc2c(Cl)cccc21 (stereo not shown) [Compound 59],"Plant response rating, Blackgrass",blackgrass [1]; [23],0
same,"Plant response rating, Blackgrass",blackgrass [1]; [24],60
same,"Plant response rating, Corn",corn [2]; [24],20
same,"Plant response rating, Foxtail, Giant","foxtail, giant [3]; [23]",90
same,"Plant response rating, Foxtail, Giant","foxtail, giant [3]; [24]",100
same,"Plant response rating, Goosegrass",goosegrass [4]; [23],90
same,"Plant response rating, Goosegrass",goosegrass [4]; [24],100
same,"Plant response rating, Kochia",kochia [5]; [23],0
same,"Plant response rating, Kochia",kochia [5]; [24],90
same,"Plant response rating, Oat, Wild","oat, wild [6]; [23]",20
same,"Plant response rating, Oat, Wild","oat, wild [6]; [24]",90
same,"Plant response rating, Pigweed, Palmer","pigweed, palmer [7]; [23]",10
same,"Plant response rating, Pigweed, Palmer","pigweed, palmer [7]; [24]",100
same,"Plant response rating, Ragweed",ragweed [8]; [23],0
same,"Plant response rating, Ragweed",ragweed [8]; [24],0
same,"Plant response rating, Ryegrass, Italian","ryegrass, Italian [9]; [23]",90
same,"Plant response rating, Ryegrass, Italian","ryegrass, Italian [9]; [24]",100
same,"Plant response rating, Soybean",soybean [10]; [24],90
same,"Plant response rating, Wheat",wheat [11]; [23],0
same,"Plant response rating, Wheat",wheat [11]; [24],50
same,"Plant response rating, Blackgrass",blackgrass [12]; [25],20
same,"Plant response rating, Blackgrass",blackgrass [12]; [26],80
same,"Plant response rating, Corn",corn [13]; [26],20
same,"Plant response rating, Foxtail, Giant","foxtail, giant [14]; [25]",40
same,"Plant response rating, Foxtail, Giant","foxtail, giant [14]; [26]",90
same,"Plant response rating, Goosegrass",goosegrass [15]; [25],20
same,"Plant response rating, Goosegrass",goosegrass [15]; [26],50
same,"Plant response rating, Kochia",kochia [16]; [25],10
same,"Plant response rating, Kochia",kochia [16]; [26],70
same,"Plant response rating, Oat, Wild","oat, wild [17]; [25]",10
same,"Plant response rating, Oat, Wild","oat, wild [17]; [26]",50
same,"Plant response rating, Pigweed, Palmer","pigweed, palmer [18]; [25]",20
same,"Plant response rating, Pigweed, Palmer","pigweed, palmer [18]; [26]",50
same,"Plant response rating, Ragweed",ragweed [19]; [25],40
same,"Plant response rating, Ragweed",ragweed [19]; [26],40
same,"Plant response rating, Ryegrass, Italian","ryegrass, Italian [20]; [25]",0
same,"Plant response rating, Ryegrass, Italian","ryegrass, Italian [20]; [26]",60
same,"Plant response rating, Soybean","soybean [21]; Postemergence, 0 to 100 scale",100
same,"Plant response rating, Wheat",wheat [22]; [25],10
same,"Plant response rating, Wheat",wheat [22]; [26],40
same,"Plant response rating, Galium",galium; [25],90
same,"Plant response rating, Galium",galium; [26],100
same,"Plant response rating, Horseweed",horseweed; [25],0
same,"Plant response rating, Horseweed",horseweed; [26],0
same,"Plant response rating, Barnyardgrass",barnyardgrass,0
same,"Plant response rating, Ducksalad",ducksalad,0
same,"Plant response rating, Rice",rice,0
same,"Plant response rating, Sedge, Umbrella","sedge, umbrella",0

# From US20260262643A1, “HERBICIDAL BENZOXAZINES” (FMC CORPORATION, priority 2022, published 2026)
